“And” between values parts separate entries of the source, which are not always exact repeats. Identical values can stand only once. Toxic doses and inconclusive results are not listed. The calls were made as follows: active = survival T/C of 150% or more; inactive = T/C below 125% in these data.
Tested on: P388 leukemia ip, CD2F1 mice, survival T/C
Test: NCI In Vivo Anticancer Drug Screen. Data for tumor model P388 Leukemia (intraperitoneal) in CD2F1 (CDF1) mice
Settings: endpoint: median survival time, higher = longer survival
Summary of the method: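 Mice carrying the transplanted tumor received test compound or vehicle. Survival was recorded in each group, and the value is the treated-group measurement divided by that of the vehicle-treated control group.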

[1] = dose: 50.0 mg/kg/injection, schedule: Q01DX009 (ip), vehicle: saline
[2] = dose: 100.0 mg/kg/injection, schedule: Q01DX009 (ip), vehicle: saline
[3] = dose: 200.0 mg/kg/injection, schedule: Q01DX009 (ip), vehicle: saline
[4] = dose: 50.0 mg/kg/injection, schedule: Q01DX009 (ip), vehicle: saline with Tween-80
[5] = dose: 100.0 mg/kg/injection, schedule: Q01DX009 (ip), vehicle: saline with Tween-80
[6] = dose: 200.0 mg/kg/injection, schedule: Q01DX009 (ip), vehicle: saline with Tween-80
[7] = dose: 50.0 mg/kg/injection, schedule: Q01DX005 (ip), vehicle: saline with Tween-80
[8] = dose: 100.0 mg/kg/injection, schedule: Q01DX005 (ip), vehicle: saline with Tween-80
[9] = dose: 200.0 mg/kg/injection, schedule: Q01DX005 (ip), vehicle: saline with Tween-80

Measured: T/C

C[Si](C)(C)O/C=C1/CCOC1=O
inactive: [1] 100 % of control and 87 % of control | [2] 98 % of control and 104 % of control | [3] 120 % of control | dose: 300.0 mg/kg/injection, schedule: Q01DX009 (ip), vehicle: saline 114 % of control

Cc1cc(NC(=S)SCc2ccc3c(c2)OCO3)c([N+](=O)[O-])cc1C
inactive: dose: 50.0 mg/kg/injection, schedule: Q01DX009 (ip), vehicle: suspension in saline 98 % of control | dose: 100.0 mg/kg/injection, schedule: Q01DX009 (ip), vehicle: suspension in saline 100 % of control | dose: 200.0 mg/kg/injection, schedule: Q01DX009 (ip), vehicle: suspension in saline 108 % of control

C/C(CCl)=N\NC1=NC(C)(CCl)P(=O)(NNc2ncccn2)S1 (stereo unspecified)
inactive: dose: 3.75 mg/kg/injection, schedule: Q01DX005 (ip), vehicle: saline 104 % of control | dose: 7.5 mg/kg/injection, schedule: Q01DX005 (ip), vehicle: saline 106 % of control | dose: 15.0 mg/kg/injection, schedule: Q01DX005 (ip), vehicle: saline 100 % of control and 113 % of control | dose: 30.0 mg/kg/injection, schedule: Q01DX005 (ip), vehicle: saline 106 % of control and 113 % of control and 97 % of control | dose: 60.0 mg/kg/injection, schedule: Q01DX005 (ip), vehicle: saline 105 % of control and 106 % of control and 107 % of control | dose: 120.0 mg/kg/injection, schedule: Q01DX005 (ip), vehicle: saline 101 % of control

CCC[CH2][Sn]([CH2]CCC)([O]C=O)[O]C=O
inactive: dose: 0.39 mg/kg/injection, schedule: Q01DX009 (ip), vehicle: saline 99 % of control and 108 % of control | dose: 0.79 mg/kg/injection, schedule: Q01DX009 (ip), vehicle: saline 100 % of control and 92 % of control | dose: 1.56 mg/kg/injection, schedule: Q01DX009 (ip), vehicle: saline 86 % of control and 94 % of control

[NH-]C(CO)C(=O)O.[NH-]C(CO)C(=O)O.[Pt+2] (stereo unspecified)
inactive: dose: 3.13 mg/kg/injection, schedule: Q01DX009 (ip), vehicle: water 91 % of control | dose: 6.25 mg/kg/injection, schedule: Q01DX009 (ip), vehicle: water 91 % of control | dose: 12.5 mg/kg/injection, schedule: Q01DX009 (ip), vehicle: water 97 % of control | dose: 25.0 mg/kg/injection, schedule: Q01DX009 (ip), vehicle: water 106 % of control | dose: 50.0 mg/kg/injection, schedule: Q01DX009 (ip), vehicle: water 115 % of control | dose: 100.0 mg/kg/injection, schedule: Q01DX009 (ip), vehicle: water 115 % of control

CCCCCCCCCCCCSCCSCCC
inactive: [1] 90 % of control | [2] 100 % of control | [3] 90 % of control

CCOC(CNc1cnc(NC(C)=O)[nH]c1=O)OCC
inactive: dose: 25.0 mg/kg/injection, schedule: Q01DX009 (ip), vehicle: saline with Tween-80 102 % of control | [4] 104 % of control | [5] 102 % of control | [6] 112 % of control

CCc1cc2c(c3c1C(=O)CC3)C(C)(C)CCC2
inactive: dose: 50.0 mg/kg/injection, schedule: Q01DX005 (ip), vehicle: saline + Tween-80 + alcohol 106 % of control | dose: 100.0 mg/kg/injection, schedule: Q01DX005 (ip), vehicle: saline + Tween-80 + alcohol 92 % of control | dose: 200.0 mg/kg/injection, schedule: Q01DX005 (ip), vehicle: saline + Tween-80 + alcohol 97 % of control

CCCCCCC(=O)/C=C/c1ccc(OCOC)cc1
inactive: dose: 50.0 mg/kg/injection, schedule: Q01DX009 (ip), vehicle: saline + alcohol 97 % of control | dose: 100.0 mg/kg/injection, schedule: Q01DX009 (ip), vehicle: saline + alcohol 121 % of control | dose: 200.0 mg/kg/injection, schedule: Q01DX009 (ip), vehicle: saline + alcohol 100 % of control

COc1cc(C=Nc2ccc(Cl)cc2)ccc1N(CCCl)CCCl
active: dose: 5.0 mg/kg/injection, schedule: Q01DX009 (ip), vehicle: saline with Tween-80 157 % of control | dose: 50.0 mg/kg/injection, schedule: Q04DX003 (ip), vehicle: saline with Tween-80 204 % of control
inactive: dose: 0.44 mg/kg/injection, schedule: Q01DX009 (ip), vehicle: saline with Tween-80 100 % of control | dose: 0.66 mg/kg/injection, schedule: Q01DX009 (ip), vehicle: saline with Tween-80 100 % of control | dose: 1.0 mg/kg/injection, schedule: Q01DX009 (ip), vehicle: saline with Tween-80 109 % of control | dose: 2.5 mg/kg/injection, schedule: Q01DX009 (ip), vehicle: saline with Tween-80 95 % of control

Cc1cc(=O)c2cc3ccc4c5[nH]c(C)cc(=O)c5cc5ccc(c2[nH]1)c3c54
inactive: [7] 101 % of control | [8] 106 % of control | [9] 111 % of control

CC12C(=O)OC(=O)C1CCc1c2ccc2ccccc12 (stereo unspecified)
inactive: [7] 107 % of control | [8] 110 % of control | [9] 107 % of control

CC(=O)NCc1cc(C)c(CC#N)cc1CC#N
inactive: dose: 6.25 mg/kg/injection, schedule: Q01DX009 (ip), vehicle: distilled water + Tween-80 100 % of control | dose: 12.5 mg/kg/injection, schedule: Q01DX009 (ip), vehicle: distilled water + Tween-80 89 % of control and 91 % of control | dose: 25.0 mg/kg/injection, schedule: Q01DX009 (ip), vehicle: distilled water + Tween-80 103 % of control | dose: 50.0 mg/kg/injection, schedule: Q01DX009 (ip), vehicle: distilled water + Tween-80 94 % of control | dose: 100.0 mg/kg/injection, schedule: Q01DX009 (ip), vehicle: distilled water + Tween-80 94 % of control

OC1c2ccccc2-c2ccc(N(Cc3ccc(Br)cc3)Cc3ccc(Br)cc3)cc21 (stereo unspecified)
inactive: [7] 100 % of control | [8] 91 % of control | [9] 92 % of control

CC(C)C(NC(=O)OCC[P+](c1ccccc1)(c1ccccc1)c1ccccc1)C(=O)O (stereo unspecified)
inactive: [4] 116 % of control | [5] 103 % of control | [6] 91 % of control

CC(=O)n1c2ccccc2c2c(C)c3c[n+]([O-])ccc3c(C)c21
inactive: dose: 12.5 mg/kg/injection, schedule: Q04DX002 (ip), vehicle: saline with Tween-80 100 % of control | dose: 25.0 mg/kg/injection, schedule: Q04DX002 (ip), vehicle: saline with Tween-80 110 % of control | dose: 50.0 mg/kg/injection, schedule: Q04DX002 (ip), vehicle: saline with Tween-80 122 % of control | dose: 200.0 mg/kg/injection, schedule: Q04DX002 (ip), vehicle: saline with Tween-80 93 % of control

Cc1cc(OC2OC(CO)C(O)C(O)C2O)ccc1O (stereo unspecified)
inactive: dose: 25.0 mg/kg/injection, schedule: Q01DX009 (ip), vehicle: Klucel (hydroxypropylcellulose) (HPC) 87 % of control | dose: 50.0 mg/kg/injection, schedule: Q01DX009 (ip), vehicle: Klucel (hydroxypropylcellulose) (HPC) 96 % of control | dose: 200.0 mg/kg/injection, schedule: Q01DX009 (ip), vehicle: Klucel (hydroxypropylcellulose) (HPC) 89 % of control

Cc1cc(O)c(C(=O)/C=C/c2ccnc3ccccc23)c(=O)o1
inactive: dose: 60.0 mg/kg/injection, schedule: Q01DX005 (ip), vehicle: Klucel (hydroxypropylcellulose) (HPC) 104 % of control | dose: 120.0 mg/kg/injection, schedule: Q01DX005 (ip), vehicle: Klucel (hydroxypropylcellulose) (HPC) 108 % of control

CN(C)c1ccc(C(=O)c2ccc(N(C)C)cc2)cc1
inactive: [5] 100 % of control | [6] 112 % of control | dose: 400.0 mg/kg/injection, schedule: Q01DX009 (ip), vehicle: saline with Tween-80 116 % of control

Nc1ccc2ncccc2c1[N+](=O)[O-]
inactive: dose: 100.0 mg/kg/injection, schedule: Q04DX003 (ip), vehicle: saline with Tween-80 95 % of control | dose: 200.0 mg/kg/injection, schedule: Q04DX003 (ip), vehicle: saline with Tween-80 94 % of control

Cc1[nH]c(=O)cc2c1[nH]c1ccccc12
inactive: dose: 12.5 mg/kg/injection, schedule: Q01DX005 (ip), vehicle: Klucel (hydroxypropylcellulose) (HPC) 96 % of control | dose: 50.0 mg/kg/injection, schedule: Q01DX005 (ip), vehicle: Klucel (hydroxypropylcellulose) (HPC) 100 % of control | dose: 100.0 mg/kg/injection, schedule: Q01DX005 (ip), vehicle: Klucel (hydroxypropylcellulose) (HPC) 98 % of control

Cc1ccc(N(C(=O)c2ccc(Cl)cc2)C(=S)C#N)cc1
inactive: dose: 60.0 mg/kg/injection, schedule: Q01DX005 (ip), vehicle: Klucel + Tween-80 89 % of control | dose: 120.0 mg/kg/injection, schedule: Q01DX005 (ip), vehicle: Klucel + Tween-80 95 % of control | dose: 240.0 mg/kg/injection, schedule: Q01DX005 (ip), vehicle: Klucel + Tween-80 103 % of control

— PubChem BioAssay AID330 (DTP/NCI, 2004)
